Source: patent US4181732A, “1-Branched-alkylcarbonyl-3-(3,5-dihalophenyl)imidazolidine-2,4-diones” (Sumitomo Chemical Company, Limited, priority 1977, dated 1980)

Experiments:
[1] = system: blue mold of orange (Penicillium italicum); assay: Protective activity test on blue mold of orange; format: in vivo; settings: orange fruits var. Unshu dipped 1 minute, index 0-5, 7 days after inoculation, no treatment 5.0
Procedure: Protective activity test on blue mold of orange (Penicillium italicum): Orange fruits (var.: Unshu) were well washed with water and air-dried. Each of the emulsifiable concentrates containing the test compounds was diluted with water to a required concentration and the air-dried orange fruits were dipped in the aqueous solution for 1 minute. After air-drying, the surface of the fruit was inoculated by spraying a spore suspension of Pencillium italicum cultured in a potato agar medium for 5 days. […] The results are shown in the mean value of disease index.

[2] = system: Alternaria leaf spot of apple (Alternaria mali); assay: Protective activity test on Alternaria leaf spot of apple; format: in vivo; settings: 500 ppm active ingredient; apple var. Indo, sprayed 6 days before inoculation; no treatment 79.6
[3] = system: black spot of pear (Alternaria kikuchiana); assay: Protective activity test on black spot of pear; format: in vivo; settings: 500 ppm active ingredient; pear var. 20-Seiki, sprayed 7 days before inoculation; no treatment 77.8
[4] = system: wild (susceptible) strain of Alternaria kikuchiana; assay: Fungicidal activity test: mycelial growth inhibition on agar plate, wild susceptible strain; format: cell-based; settings: 96 h, 27° C., 4 days, read-out: Percentage of growth inhibition, wild susceptible strain; for inhibition at 1 ppm: 1 ppm active ingredient; for inhibition at 10 ppm: 10 ppm active ingredient
[5] = system: fungicide-resistant strain of black spot fungus (Alternaria kikuchiana) resistant to Polyoxin; assay: Fungicidal activity test on fungicide-resistant pathogens: mycelial growth inhibition on agar plate, Polyoxin-resistant strain; format: cell-based; settings: 96 h, 27° C., 4 days, read-out: Percentage of growth inhibition, fungicide-resistant strain; for inhibition at 1 ppm: 1 ppm active ingredient; for inhibition at 10 ppm: 10 ppm active ingredient

SMILES	Mean value of disease index ([1]; 100 ppm active ingredient)	Disease severity [2] [%]	Disease severity [3] [%]	further results
CC(C)CC(=O)N1CC(=O)N(c2cc(Br)cc(Br)c2)C1=O [Compound 5]	0.1	3.0	2.6	–
CC(=O)N1CC(=O)N(c2cc(Cl)cc(Cl)c2)C1=O [reference compound]	–	–	–	Mean value of disease index ([1]; 200 ppm active ingredient): 2.8
CCC(C)CC(=O)N1CC(=O)N(c2cc(Cl)cc(Cl)c2)C1=O (centres unmarked) [Compound 7]	–	4.1	3.7	–
CCC(=O)N1CC(=O)N(c2cc(Cl)cc(Cl)c2)C1=O [drawing 38, reference compound]	–	–	31.6	–
CCC(=O)N1CC(=O)N(c2cc(Cl)cc(Cl)c2)C1=O [drawing 43, reference compound]	–	–	–	Mean value of disease index ([1]; 200 ppm active ingredient): 3.0
CCCC(C)C(=O)N1CC(=O)N(c2cc(Cl)cc(Cl)c2)C1=O (centres unmarked) [Compound 9]	–	1.7	2.1	–
CCC(C)C(=O)N1CC(=O)N(c2cc(Cl)cc(Cl)c2)C1=O (centres unmarked) [Compound 6]	–	8.1	5.5	–
CCC(CC)C(=O)N1CC(=O)N(c2cc(Cl)cc(Cl)c2)C1=O [Compound 8]	–	3.6	4.0	–
CC(C)CC(=O)N1CC(=O)N(c2cc(Cl)cc(Cl)c2)C1=O [Compound 2]	0.0	2.4	3.0	inhibition at 1 ppm [4]: 78%; inhibition at 10 ppm [4]: 96%; inhibition at 1 ppm [5]: 76%; inhibition at 10 ppm [5]: 95%
CC(C)(C)CC(=O)N1CC(=O)N(c2cc(Cl)cc(Cl)c2)C1=O [Compound 4]	0.4	5.7	8.9	inhibition at 1 ppm [4]: 64%; inhibition at 10 ppm [4]: 92%; inhibition at 1 ppm [5]: 61%; inhibition at 10 ppm [5]: 93%
CC(C)(C)C(=O)N1CC(=O)N(c2cc(Cl)cc(Cl)c2)C1=O [Compound 3]	0.2	9.6	7.4	–
CC(C)C(=O)N1CC(=O)N(c2cc(Cl)cc(Cl)c2)C1=O [Compound 1]	0.5	7.2	4.3	–
CCC(=O)N1CC(=O)N(c2cc(Cl)cc(Cl)c2)C1=O [drawing 37, reference compound]	–	–	–	inhibition at 1 ppm [4]: 49%; inhibition at 10 ppm [4]: 68%; inhibition at 1 ppm [5]: 45%; inhibition at 10 ppm [5]: 69%
CCC(=O)N1CC(=O)N(c2cc(Cl)cc(Cl)c2)C1=O [drawing 40, reference compound]	–	36.8	–	–
CC(C)CCC(=O)N1CC(=O)N(c2cc(Cl)cc(Cl)c2)C1=O [Compound 10]	–	9.9	9.8	–
